The numbers were not newly measured in publication PMC3449305 (Bioorganic & medicinal chemistry, 2011), which cites them from elsewhere.

For data set [1] the following is noted: rats.
The subject of another data set is CNS. The settings on record: rodents.

The structures appear in SMILES notation.

Consider `CC(NC(=O)C(CC(=O)N1CCC(N2CCCCC2)CC1)N1C(=O)C(N2C(=O)OCC2c2ccccc2)C1C=Cc1ccccc1)c1ccccc1` (centres unmarked) [SRX246], for which, in data set [1], the blood-brain barrier penetration result was “crosses the blood–brain barrier”.

Consider `C[C@@H](NC(=O)[C@@H](CC(=O)N1CCC(N2CCCCC2)CC1)N1C(=O)[C@@H](N2C(=O)OC[C@@H]2c2ccccc2)[C@H]1/C=C/c1cccc(I)c1)c1ccccc1` [Compound 11a, (R)-4-([1,4′-Bipiperidin]-1′-yl)-2-((2R,3S)-2-((E)-3-iodostyryl)-4-oxo-3-((S)-2-oxo-4-phenyloxazolidin-3-yl)azetidin-1-yl)-4-oxo-N-((R)-1-phenylethyl)butanamide], for which the “CNS effect in BOLD imaging” value in the data set with CNS is listed as “CNS modulatory effect”.
